Where two headings read alike, the source gives them in different places. Marks after values point to notes of the source that are not given here. Peptide text beside a SMILES is read from it. * marks the point of attachment. Levofloxacinoyl = C[C@H]1COc2c(N3CCN(C)CC3)c(F)cc3c(=O)c(C(=O)*)cn1c23
Legend:
B. cereus membranes [1] = assay: DiSC(3)5 membrane depolarization assay; format: cell-based; details: B. cereus 2 × 10^7 CFU/mL; 10 mM NaPO4 pH 7.4; 33 μM P4LC and Pep-4, 126 μM Pep-4/LVFX, 93 μM LVFX; melittin 33 μM = maximal; monitored 30 min; triplicate
Procedure: (§1) Enumerated frozen aliquots of E. coli and B. cereus cells were thawed and washed 3x with buffer (10 mM NaPO4, pH 7.4). The washed cells were diluted in 10 mM NaPO4 buffer containing 10 ug/mL DiSC(3)5 to afford a concentration of 4 × 10^7 CFU/mL. Bacterial suspension was added to the wells of a black polypropylene microtiter plate (Greiner Bio-One) in 100 μL aliquots, and fluorescence was monitored (rt, with lid on) using a SpectraMax Gemini EM plate-reading fluorometer (622 nmex/ 670 nmem) until fluorescence quenching stabilized and maximal DiSC(3)5 uptake was achieved. […] The final concentrations of each assessed compound in the wells were 33 μM (P4LC and Pep-4), 126 μM (Pep-4/LVFX), and 93 μM (LVFX), while final bacterial concentrations were 2 × 10^7 CFU/mL. Assays were performed in triplicate for each compound assessed. […] The fluorescence kinetics data sets were normalized by setting emitted fluorescence to 0 at t = 0 s and presenting fluorescence intensity values as a fraction of maximal fluorescence observed for melittin.
(§2) For membrane depolarization and perturbation experiments, fluorescence data was analyzed by comparing best-fit curves (GraphPad Prism). Fluorescence kinetic curves were fit to a polynomial regression model (equation 4) to allow for statistical comparison of the fluorescence data via an F test, with all four best-fit parameters used as criteria. […]

E. coli membranes [2] = assay: DiSC(3)5 membrane depolarization assay; format: cell-based; details: E. coli 2 × 10^7 CFU/mL; 10 mM NaPO4 pH 7.4; 33 μM P4LC and Pep-4, 126 μM Pep-4/LVFX, 93 μM LVFX; melittin 33 μM = maximal; monitored 30 min; triplicate
Procedure: as §1, §2

B. cereus membranes [3] = assay: SYTOX green membrane perturbation assay; format: cell-based; details: 10 mM NaPO4 pH 7.4, 33 μM P4LC, 33 μM Pep-4, 126 μM Pep-4/LVFX, 93 μM LVFX, melittin = maximal, biological triplicates
Procedure: (§3) Enumerated frozen aliquots of E. coli and B. cereus cells were thawed and washed 3x with buffer (10 mM NaPO4, pH 7.4). The washed cells were diluted to a concentration of 4 × 10^7 CFU/mL in 10 mM NaPO4 (pH 7.4) buffer containing 5 μM SYTOX Green, and the resulting suspension then stored in the dark for ~20 min. The bacterial suspension was then distributed in 100 μL aliquots to wells of a black polypropylene microtiter plate (Greiner Bio-One). […] The fluorescence of each well was immediately monitored (without the lid) using a SpectraMax Gemini EM plate-reading fluorometer (485/520 nmem). […] A negative control containing only bacteria and SYTOX Green was used to determine background fluorescence, and maximal perturbation of the bacterial cell membranes was established using melittin. The fluorescence kinetics data sets were normalized by setting emitted fluorescence to 0 at t = 0 s and presenting fluorescence intensity values as a fraction of maximal fluorescence observed for melittin.
as §2

E. coli membranes [4] = assay: SYTOX green membrane perturbation assay; format: cell-based; details: 10 mM NaPO4 pH 7.4, 33 μM P4LC, 33 μM Pep-4, 126 μM Pep-4/LVFX, 93 μM LVFX, biological triplicates
Procedure: as §3, §2

[5] = Distribution coefficient (1-octanol / 10 mM NaPO4 pH 7.4); details: for logD at 10 min: pH 7.4
Procedure: In these experiments, P4LC, Pep-4 or free LVFX dissolved in 100 μL of 10 mM NaPO4 (pH 7.4) buffer was combined with 100 μL of 1-Octanol in a 1.5 mL low binding polypropylene microcentrifuge tube (Corning). Each tube was vortexed for 10 min and the contained solvent allowed to settle. […] The maximal concentrations of Pep-4 and P4LC in the calibration curves were also established using amino acid analysis (UC Davis Genome Center Proteomics Core Facility). […] Indolicidin and melittin were used as reference peptides in these studies. […] The D7.4 values generated for P4LC, Pep-4, LVFX, indolicidin, and melittin were calculated (equation 5) based on their respective concentrations in the aqueous phase ([peptide]PO4buffer) of the water/octanol biphasic system and their concentrations in the initial stock solution ([peptide]total). Values are averaged from six replicates.
(5) logD7.4=log(([peptide]total−[peptide]PO4buffer)/([peptide]PO4buffer)) =log ([peptide]octanol/[peptide]PO4buffer)
The concentration ratios of each compound between the two liquid phases were used to establish distribution coefficients (D7.4). Indolicidin and melittin were used as reference peptides in these studies.

B. cereus (#11778) [6] = system: B. cereus (#11778)
Procedure: (§4) Frozen enumerated aliquots of bacteria were thawed and diluted into sterile buffer to a bacterial concentration of 2 × 10^6 CFU/mL. Wells of a 96-well polypropylene microtiter plate (Greiner Bio-One) were charged with 50 μL aliquots of buffer solutions containing serially diluted peptide, conjugate, or drug followed by 50 μL aliquots of diluted bacterial cells. Assays for each compound were prepared in triplicate. Control wells were prepared where the peptide/conjugate/drug solution was replaced with an equal volume of buffer alone. Following addition of bacteria, the microtiter plates were incubated for 3 h at either 37°C (E. coli) or 30°C (B. cereus). […] Plates were then immediately placed in a SpectraMax Gemini EM plate-reading fluorometer for overnight monitoring of fluorescence (530 nmex/590 nmem) at either 37°C (E. coli) or 30°C (B. cereus) with intermittent shaking. Onset time of half maximal fluorescence (T0.5) observed for each well was computed using the microplate data analysis software. In order to determine bacterial survival, it was necessary to establish correlations between bacterial concentration (CFU/mL) and T0.5 values. Therefore, standard curve equations were generated in preliminary experiments using bacterial suspensions serially diluted (~10^6 CFU/mL—10^3 CFU/mL) in each of the three buffers used in the antibacterial assays.
(§5) (2) log(CFU/mLB.cereus)=−1.00 × 10^−4(T0.5)+Yint
(§6) (3) Bacterial Survival=Smin+(Smax−Smin)/ (1+10^log(EC50)−log(PC)∗HS)
(§7) Assays were conducted under three different ionic strength (μ) buffer conditions in order to assess the effect salt concentration had on antibacterial effectiveness. The lowest ionic strength buffer used was 10 mM NaPO4, pH 7.4, which corresponded to 26 mM total ionic strength. […] Bacterial survival results were plotted against the log of the concentration of conjugate, peptide, or free drug. EC50 values for each assessed compound were calculated by fitting the survival data to equation 3, which models typical sigmoidal dose-response behavior using a variable Hill slope. An F test was used to assess statistical significance, with the alpha level set to 0.05.

E. coli (#25922) [7] = assay: microbe, parasite or virus in culture; details: Escherichia coli, 3 h, pH 7.4, read-out: EC50 (95% confidence interval), E. coli, resazurin read-out, triplicate
Procedure: as §4
(§8) (1) log(CFU/mLE.coli)=−2.00 × 10^−4(T0.5)+Yint
as §6, §7

B. cereus (#11778) [8] = assay: microbe, parasite or virus in culture; details: Bacillus cereus, 3 h
Procedure: as §4, §5, §6, §7

E. coli (#25922) [9] = details: for EC50: read-out: EC50 (95% confidence interval), E. coli, resazurin read-out, triplicate
Procedure: as §4, §8, §6, §7

[10] = read-out: EC50 (95% confidence interval), B. cereus, ionic strength μ2 = 111 mM (10 mM NaPO4 : cation-adjusted PBS 1:1, pH 7.4), 3 h at 30°C, resazurin read-out, triplicate, * = estimated, lower survival boundary set to 0
[11] = ionic strength μ1 = 26 mM (10 mM NaPO4, pH 7.4), 3 h incubation at 37°C
[12] = ionic strength μ2 = 111 mM (10 mM NaPO4 : cation-adjusted PBS 1:1, pH 7.4), 3 h at 37°C
[13] = ionic strength μ3 = 167 mM (cation-adjusted PBS, pH 7.4), 3 h at 37°C, * = estimated, lower survival boundary set to 0

C[C@H]1COc2c(N3CCN(C)CC3)c(F)cc3c(=O)c(C(=O)O)cn1c23 [LVFX, Levofloxacin]
mean maximal DiSC(3)5 fluorescence relative to melittin (membrane depolarization) (B. cereus membranes [1]): 2.5%
mean maximal DiSC(3)5 fluorescence relative to melittin (membrane depolarization) (E. coli membranes [2]): 8.4%
SYTOX Green fluorescence increase relative to melittin (membrane perturbation) (B. cereus membranes [3]): No increase in fluorescence
mean maximal SYTOX Green fluorescence relative to melittin (membrane perturbation) (E. coli membranes [4]): No increase in fluorescence
D7.4 fold greater than P4LC ([5]; 1-octanol / 10 mM NaPO4 pH 7.4, ratio of D7.4 values): about 4.5 fold
EC50 (B. cereus (#11778) [6]; [10]): 591 nM
EC50 (E. coli (#25922) [7]; [11]): 2.81 nM
EC50 (E. coli (#25922) [7]; [12]): 2.23 nM
EC50 (E. coli (#25922) [7]; [13]): 2.77 nM
EC50 (B. cereus (#11778) [8]; pH 7.4, read-out: EC50 (95% confidence interval)): 981 nM
EC50 (B. cereus (#11778) [8]; pH 7.4, read-out: EC50 (95% confidence interval), B. cereus, ionic strength μ1 = 26 mM (10 mM NaPO4, pH 7.4), 3 h incubation at 30°C, resazurin read-out, triplicate): 212 nM

C[C@H]1COc2c(N3CCN(C)CC3)c(F)cc3c(=O)c(C(=O)NCCCC[C@H](NC(=O)[C@H](CCCCNC(=O)c4cn5c6c(c(N7CCN(C)CC7)c(F)cc6c4=O)OC[C@@H]5C)NC(=O)[C@H](CCCNC(=N)N)NC(=O)[C@H](CCCNC(=N)N)NC(=O)[C@H](CO)NC(=O)[C@H](CO)NC(=O)[C@H](CCCNC(=N)N)NC(=O)[C@H](CCCNC(=N)N)NC(=O)CNC(=O)[C@H](CCCNC(=N)N)NC(=O)c4cn5c6c(c(N7CCN(C)CC7)c(F)cc6c4=O)OC[C@@H]5C)C(N)=O)cn1c23 [P4LC] (Levofloxacinoyl-RGRRSSRRK(Levofloxacinoyl)K(Levofloxacinoyl)-NH2)
logD at 10 min [5]: -1.65
EC50 (E. coli (#25922) [9]; [11]): 16.7 nM
EC50 (E. coli (#25922) [9]; [12]): 1710 nM
EC50 (E. coli (#25922) [9]; [13]): 1510 nM
EC50 (B. cereus (#11778) [6]; read-out: EC50 (95% confidence interval), B. cereus, ionic strength μ1 = 26 mM (10 mM NaPO4, pH 7.4), 3 h incubation at 30°C, resazurin read-out, triplicate): 21.8 nM
EC50 (B. cereus (#11778) [6]; [10]): 2170 nM
EC50 (B. cereus (#11778) [6]; read-out: EC50 (95% confidence interval), B. cereus, ionic strength μ3 = 167 mM (cation-adjusted PBS, pH 7.4), 3 h at 30°C, resazurin read-out, triplicate, * = estimated, lower survival boundary set to 0): 40000 nM

N=C(N)NCCC[C@H](NC(=O)CNC(=O)[C@@H](N)CCCNC(=N)N)C(=O)N[C@@H](CCCNC(=N)N)C(=O)N[C@@H](CO)C(=O)N[C@@H](CO)C(=O)N[C@@H](CCCNC(=N)N)C(=O)N[C@@H](CCCNC(=N)N)C(=O)N[C@@H](CCCCN)C(=O)N[C@@H](CCCCN)C(N)=O [Pep-4] (H-RGRRSSRRKK-NH2)
logD at 10 min [5]: -2.57
EC50 (95% confidence interval) (E. coli (#25922) [9]; #25922, 3 h, pH 7.4): ~29.4 ^* (21.9–35.4)^* μM
EC50 (B. cereus (#11778) [6]; #11778, 3 h, pH 7.4): 27.1 nM

CC[C@H](C)[C@H](N)C(=O)N[C@@H](CC(C)C)C(=O)N1CCC[C@H]1C(=O)N[C@@H](Cc1c[nH]c2ccccc12)C(=O)N[C@@H](CCCCN)C(=O)N[C@@H](Cc1c[nH]c2ccccc12)C(=O)N1CCC[C@H]1C(=O)N[C@@H](Cc1c[nH]c2ccccc12)C(=O)N[C@@H](Cc1c[nH]c2ccccc12)C(=O)N1CCC[C@H]1C(=O)N[C@@H](Cc1c[nH]c2ccccc12)C(=O)N[C@@H](CCCN=C(N)N)C(=O)N[C@@H](CCCN=C(N)N)C(N)=O [indolicidin]
logD at 10 min [5]: 2.3

CC[C@H](C)[C@H](NC(=O)CN)C(=O)NCC(=O)N[C@@H](C)C(=O)N[C@H](C(=O)N[C@@H](CC(C)C)C(=O)N[C@@H](CCCCN)C(=O)N[C@H](C(=O)N[C@@H](CC(C)C)C(=O)N[C@H](C(=O)N[C@H](C(=O)NCC(=O)N[C@@H](CC(C)C)C(=O)N1CCC[C@H]1C(=O)N[C@@H](C)C(=O)N[C@@H](CC(C)C)C(=O)N[C@H](C(=O)N[C@@H](CO)C(=O)N[C@@H](Cc1c[nH]c2ccccc12)C(=O)N[C@H](C(=O)N[C@@H](CCCCN)C(=O)N[C@@H](CCCNC(=N)N)C(=O)N[C@@H](CCCCN)C(=O)N[C@@H](CCCNC(=N)N)C(=O)N[C@@H](CCC(N)=O)C(=O)N[C@@H](CCC(N)=O)C(N)=O)[C@@H](C)CC)[C@@H](C)CC)[C@@H](C)O)[C@@H](C)O)C(C)C)C(C)C [melittin, Melittin]
logD at 10 min [5]: -0.46
